Here are results for 20 compounds from PubChem BioAssay AID256 (DTP/NCI, 2004).

The test system of this experiment is CD2F1 mice, L1210 leukemia ip, survival T/C. The experiment can be described thus: NCI In Vivo Anticancer Drug Screen. Data for tumor model L1210 Leukemia (intraperitoneal) in CD2F1 (CDF1) mice. As to conditions: higher = longer survival. The essentials:
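Vehicle-treated tumor-bearing mice served as controls (C) for compound-treated mice (T). Reported figure is T divided by C.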

Setting [1] is: endpoint: mean survival time, dose: 100.0 mg/kg/injection, schedule: Q04DX003 (ip), vehicle: saline with Tween-80.
Setting [2] is: endpoint: mean survival time, dose: 200.0 mg/kg/injection, schedule: Q04DX003 (ip), vehicle: saline with Tween-80.
The mark [3] stands for this setting: endpoint: mean survival time, dose: 100.0 mg/kg/injection, schedule: Q04DX003 (ip), vehicle: saline.
Where [4] appears, read: endpoint: mean survival time, dose: 100.0 mg/kg/injection, schedule: Q01DX009 (ip), vehicle: saline with Tween-80.
Setting [5] is: endpoint: mean survival time, dose: 200.0 mg/kg/injection, schedule: Q01DX009 (ip), vehicle: saline with Tween-80.
Setting [6] is: endpoint: mean survival time, dose: 400.0 mg/kg/injection, schedule: Q01DX009 (ip), vehicle: saline with Tween-80.
Setting [7] is: endpoint: mean survival time, dose: 50.0 mg/kg/injection, schedule: Q01DX009 (ip), vehicle: saline with Tween-80.
Setting [8] is: endpoint: mean survival time, dose: 25.0 mg/kg/injection, schedule: Q04DX003 (ip), vehicle: saline.
Setting [9] is: endpoint: mean survival time, dose: 50.0 mg/kg/injection, schedule: Q04DX003 (ip), vehicle: saline.

Several values for one entry are separate records, joined by “and”; a condition that tells them apart may be missing. Identical values can stand only once. Toxic doses and inconclusive results are not listed. Non-standard residues stand in square brackets, D forms with d. Residues, ends and D or L forms follow the SMILES beside them. Ac5c = NC1(C(=O)O)CCCC1

Regarding `NCC(=O)NC1(C(=O)O)CCCC1` (H-Gly-[Ac5c]-OH), the T/C is, setting by setting: (endpoint: mean survival time, dose: 62.5 mg/kg/injection, schedule: Q01DX001 (ip), vehicle: saline) 87 % of control; (endpoint: mean survival time, dose: 62.5 mg/kg/injection, schedule: Q04DX003 (ip), vehicle: saline) 107 % of control; (endpoint: mean survival time, dose: 125.0 mg/kg/injection, schedule: Q01DX001 (ip), vehicle: saline) 91 % of control; (endpoint: mean survival time, dose: 125.0 mg/kg/injection, schedule: Q04DX003 (ip), vehicle: saline) 107 % of control; (endpoint: mean survival time, dose: 250.0 mg/kg/injection, schedule: Q01DX001 (ip), vehicle: saline) 112 % of control; (endpoint: mean survival time, dose: 500.0 mg/kg/injection, schedule: Q04DX003 (ip), vehicle: saline) 152 % of control.

In the case of `O=[N+]([O-])c1cccc2c(S(=O)(=O)O)cccc12`, the T/C is, setting by setting: under setting [1], 102 % of control; under setting [2], 98 % of control.

Regarding `C[N+](C)(C)CC1CO1` (stereo unspecified), the T/C under setting [3] was 106 % of control and the T/C (endpoint: mean survival time, dose: 200.0 mg/kg/injection, schedule: Q04DX003 (ip), vehicle: saline) is 94 % of control.

Take `C=CCOc1c(C)cc(C(C)(C)c2cc(C)c(OCC=C)c(C)c2)cc1C`: the T/C is 104 % of control (endpoint: mean survival time, dose: 25.0 mg/kg/injection, schedule: Q01DX001 (ip), vehicle: other); 103 % of control (endpoint: mean survival time, dose: 50.0 mg/kg/injection, schedule: Q01DX001 (ip), vehicle: other); 94 % of control and 97 % of control (endpoint: mean survival time, dose: 100.0 mg/kg/injection, schedule: Q01DX001 (ip), vehicle: other); 96 % of control (endpoint: mean survival time, dose: 400.0 mg/kg/injection, schedule: Q01DX001 (ip), vehicle: other).

Consider `Cc1ccc(S(=O)(=O)NN=C(c2ccccc2)c2ccccc2)cc1`, for which the T/C by setting is: (endpoint: mean survival time, dose: 25.0 mg/kg/injection, schedule: Q01DX009 (ip), vehicle: water) 101 % of control; (endpoint: mean survival time, dose: 50.0 mg/kg/injection, schedule: Q01DX009 (ip), vehicle: water) 101 % of control; (endpoint: mean survival time, dose: 100.0 mg/kg/injection, schedule: Q01DX009 (ip), vehicle: water) 95 % of control; (endpoint: mean survival time, dose: 200.0 mg/kg/injection, schedule: Q01DX009 (ip), vehicle: water) 95 % of control.

In the case of `Cc1ccc(S(=O)(=O)Oc2ccc(Cl)cc2)cc1`, the T/C under setting [4] is 101 % of control, the T/C under setting [5] is 98 % of control and the T/C under setting [6] was 98 % of control.

For the compound `O=c1cc(-c2ccccc2)[nH]c2c1CCCC2`, the T/C was 102 % of control (endpoint: median survival time, dose: 12.5 mg/kg/injection, schedule: Q01DX009 (ip), vehicle: saline with Tween-80); 105 % of control (endpoint: median survival time, dose: 25.0 mg/kg/injection, schedule: Q01DX009 (ip), vehicle: saline with Tween-80); 103 % of control and 108 % of control and 109 % of control (endpoint: median survival time, dose: 50.0 mg/kg/injection, schedule: Q01DX009 (ip), vehicle: saline with Tween-80); 115 % of control and 116 % of control and 105 % of control (endpoint: median survival time, dose: 100.0 mg/kg/injection, schedule: Q01DX009 (ip), vehicle: saline with Tween-80); 117 % of control and 120 % of control (endpoint: median survival time, dose: 200.0 mg/kg/injection, schedule: Q01DX009 (ip), vehicle: saline with Tween-80); 90 % of control and 103 % of control (endpoint: median survival time, dose: 400.0 mg/kg/injection, schedule: Q01DX009 (ip), vehicle: saline with Tween-80).

For `N#CCCN(CCCN1CCOCC1)C(=S)Nc1ccc(Cl)cc1`, the T/C under setting [4] was 104 % of control, the T/C under setting [5] was 104 % of control and the T/C under setting [6] is 93 % of control.

As for `COc1cc(OC)c(NC(=O)Nc2ccc(CCO)cc2)cc1Cl`, the T/C runs as follows: under setting [7], 93 % of control; under setting [4], 86 % of control; under setting [5], 93 % of control.

For `NNc1ccccc1-c1nc2ccccc2[nH]1`, the T/C was 96 % of control (endpoint: mean survival time, dose: 75.0 mg/kg/injection, schedule: Q01DX001 (ip), vehicle: saline); 96 % of control (endpoint: mean survival time, dose: 150.0 mg/kg/injection, schedule: Q01DX001 (ip), vehicle: saline); 108 % of control (endpoint: mean survival time, dose: 300.0 mg/kg/injection, schedule: Q01DX001 (ip), vehicle: saline).

Turning to `Nc1ccc2c(c1)-c1ccccc1C2O` (stereo unspecified), the T/C reads like this: under setting [1], 92 % of control; under setting [2], 101 % of control; (endpoint: mean survival time, dose: 400.0 mg/kg/injection, schedule: Q04DX003 (ip), vehicle: saline with Tween-80) 99 % of control.

Turning to `CN(C)N=Nc1ccccc1[N+](=O)[O-]`, the T/C was 105 % of control (endpoint: mean survival time, dose: 53.0 mg/kg/injection, schedule: Q01DX001 (ip), vehicle: saline); 104 % of control (endpoint: mean survival time, dose: 53.0 mg/kg/injection, schedule: Q01DX009 (ip), vehicle: saline); 105 % of control (endpoint: mean survival time, dose: 79.0 mg/kg/injection, schedule: Q01DX001 (ip), vehicle: saline); 109 % of control (endpoint: mean survival time, dose: 79.0 mg/kg/injection, schedule: Q01DX009 (ip), vehicle: saline); 108 % of control (endpoint: mean survival time, dose: 119.0 mg/kg/injection, schedule: Q01DX001 (ip), vehicle: saline); 118 % of control (endpoint: mean survival time, dose: 119.0 mg/kg/injection, schedule: Q01DX009 (ip), vehicle: saline). Further, the T/C (endpoint: mean survival time, dose: 178.0 mg/kg/injection, schedule: Q01DX001 (ip), vehicle: saline) was 115 % of control and the T/C (endpoint: mean survival time, dose: 600.0 mg/kg/injection, schedule: Q01DX001 (ip), vehicle: saline) is 118 % of control.

On to `Cc1nc(C)c(Br)s1`, for which the T/C runs as follows: under setting [8], 112 % of control; under setting [9], 104 % of control; under setting [3], 106 % of control.

As to `COC(=O)C(Cl)c1ccc2c(c1)OCO2` (stereo unspecified), the T/C under setting [7] is 96 % of control, the T/C under setting [4] was 96 % of control, the T/C under setting [1] is 96 % of control and the T/C under setting [2] is 93 % of control.

For the compound `Nc1ccn([C@@H](C=O)O[C@@H](C=O)CO)c(=O)n1`, the T/C is, setting by setting: (endpoint: mean survival time, dose: 6.25 mg/kg/injection, schedule: Q01DX009 (ip), vehicle: saline) 105 % of control; (endpoint: mean survival time, dose: 12.5 mg/kg/injection, schedule: Q01DX009 (ip), vehicle: saline) 114 % of control and 108 % of control; (endpoint: mean survival time, dose: 25.0 mg/kg/injection, schedule: Q01DX009 (ip), vehicle: saline) 115 % of control and 117 % of control; (endpoint: mean survival time, dose: 50.0 mg/kg/injection, schedule: Q01DX009 (ip), vehicle: saline) 121 % of control; (endpoint: mean survival time, dose: 70.0 mg/kg/injection, schedule: Q01DX001 (ip), vehicle: saline) 114 % of control; (endpoint: mean survival time, dose: 100.0 mg/kg/injection, schedule: Q01DX009 (ip), vehicle: saline) 155 % of control and 162 % of control. The T/C was 124 % of control (endpoint: mean survival time, dose: 140.0 mg/kg/injection, schedule: Q01DX001 (ip), vehicle: saline) and 211 % of control (endpoint: mean survival time, dose: 200.0 mg/kg/injection, schedule: Q01DX009 (ip), vehicle: saline).

For `Cc1ccc(S(=O)(=O)OCCCCCOS(=O)(=O)c2ccc(C)cc2)cc1` (tested in a mixture with another compound), the T/C (endpoint: mean survival time, dose: 100.0 mg/kg/injection, schedule: Q04DX002 (ip), vehicle: saline with Tween-80) was 102 % of control; the T/C (endpoint: mean survival time, dose: 200.0 mg/kg/injection, schedule: Q04DX002 (ip), vehicle: saline with Tween-80) is 94 % of control; the T/C (endpoint: mean survival time, dose: 400.0 mg/kg/injection, schedule: Q04DX002 (ip), vehicle: saline with Tween-80) was 94 % of control.

`N=C(N)SC(c1ccccc1)c1ccccc1`: the T/C by setting is: under setting [8], 100 % of control; under setting [9], 94 % of control; under setting [3], 102 % of control.

For `CCOC(=O)CCC(NC(=O)c1cc(Cl)c(N(CC)Cc2cnc3nc(N)nc(N)c3n2)c(Cl)c1)C(=O)OCC` (stereo unspecified), under “endpoint: mean survival time, dose: 25.0 mg/kg/injection, schedule: Q01DX009 (ip), vehicle: Klucel (hydroxypropylcellulose) (HPC)”, the T/C is 170 % of control.

As for `Clc1ccc(N=Cc2ccc3c(c2)OCO3)c(Cl)c1`, the T/C was 100 % of control (endpoint: mean survival time, dose: 100.0 mg/kg/injection, schedule: Q01DX001 (ip), vehicle: Klucel (hydroxypropylcellulose) (HPC)); 96 % of control (endpoint: mean survival time, dose: 200.0 mg/kg/injection, schedule: Q01DX001 (ip), vehicle: Klucel (hydroxypropylcellulose) (HPC)); 97 % of control (endpoint: mean survival time, dose: 400.0 mg/kg/injection, schedule: Q01DX001 (ip), vehicle: Klucel (hydroxypropylcellulose) (HPC)).

On to `NP(=O)(Oc1ccc([N+](=O)[O-])cc1)Oc1ccc([N+](=O)[O-])cc1`, for which the T/C is, setting by setting: (endpoint: mean survival time, dose: 62.5 mg/kg/injection, schedule: Q01DX001 (ip), vehicle: other) 97 % of control; (endpoint: mean survival time, dose: 125.0 mg/kg/injection, schedule: Q01DX001 (ip), vehicle: other) 93 % of control; (endpoint: mean survival time, dose: 250.0 mg/kg/injection, schedule: Q01DX001 (ip), vehicle: other) 97 % of control; (endpoint: mean survival time, dose: 500.0 mg/kg/injection, schedule: Q01DX001 (ip), vehicle: other) 86 % of control.
